Here are results for two compounds from ChEMBL document CHEMBL1150830, “Polychlorinated acetamides from the cyanobacterium Microcoleus lyngbyaceus” (J Nat Prod, 2001).

Active and inactive are the calls of the source. No cut-off for these calls is given here.

The subject of this assay is Human immunodeficiency virus 1. The assay can be described thus: Antiviral activity against HIV1 infected in human H9 cells assessed as inhibition of virus-induced cytopathic effect by tetrazolium-based method. The assay is classed as functional, organism-based.

Take `CC(=O)NC(CCCC#CCC(Cl)Cl)CCCC#CCC(Cl)(Cl)Cl` (configuration not stated): the result was inactive.

In the case of `CC(=O)NC(CCCC#CCC(Cl)(Cl)Cl)CCCC#CCC(Cl)(Cl)Cl`, the result was inactive.
